# Measured values published in PubChem BioAssay (NCI).
#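 96-well plates; 48 h exposure; 5 concentrations. Endpoints by linear interpolation between flanking doses. Not reached: highest tested concentration assigned. TGI: total growth inhibition.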
# How the values were obtained:
# Experiment in all cases: NCI tumour cell line growth inhibition, 48 h
# DMS 273 small cell lung = tested on: DMS 273 small cell lung
# MDA-MB-435 = tested on: MDA-MB-435
# U251 CNS = tested on: U251 CNS
# SF-295 CNS = tested on: SF-295 CNS
# IGROV1 ovarian = tested on: IGROV1 ovarian
# MCF7 breast = tested on: MCF7 breast
# M19-MEL melanoma = tested on: M19-MEL melanoma
# MOLT-4 leukemia = tested on: MOLT-4 leukemia
# CCRF-CEM leukemia = tested on: CCRF-CEM leukemia
# NCI-H226 lung = tested on: NCI-H226 lung
# SK-MEL-5 melanoma = tested on: SK-MEL-5 melanoma
# SF-539 CNS = tested on: SF-539 CNS
# XF 498 CNS = tested on: XF 498 CNS
# HOP-62 NSCLC = tested on: HOP-62 NSCLC
# UO-31 renal = tested on: UO-31 renal
# 786-0 renal = tested on: 786-0 renal
# HL-60(TB) leukemia = tested on: HL-60(TB) leukemia
# SR leukemia = tested on: SR leukemia
# NCI/ADR-RES ovarian = tested on: NCI/ADR-RES ovarian
# HCT-116 colon = tested on: HCT-116 colon
# M14 melanoma = tested on: M14 melanoma
# OVCAR-4 ovarian = tested on: OVCAR-4 ovarian
# UACC-257 melanoma = tested on: UACC-257 melanoma
# NCI-H460 lung = tested on: NCI-H460 lung
# MDA-MB-231 breast = tested on: MDA-MB-231 breast
# A549 NSCLC = tested on: A549 NSCLC
# DLD-1 colon = tested on: DLD-1 colon
# SW-620 colon = tested on: SW-620 colon
# K-562 leukemia = tested on: K-562 leukemia
# DU-145 prostate = tested on: DU-145 prostate
# SN12K1 renal = tested on: SN12K1 renal
# HOP-18 NSCLC = tested on: HOP-18 NSCLC
# OVCAR-5 ovarian = tested on: OVCAR-5 ovarian
# HCC-2998 colon = tested on: HCC-2998 colon
# KM20L2 colon = tested on: KM20L2 colon
# TK-10 renal = tested on: TK-10 renal
# CAKI-1 renal = tested on: CAKI-1 renal
# SK-MEL-28 melanoma = tested on: SK-MEL-28 melanoma
# ACHN renal = tested on: ACHN renal
# HOP-92 NSCLC = tested on: HOP-92 NSCLC
# SK-OV-3 ovarian = tested on: SK-OV-3 ovarian
# P388/ADR leukemia = tested on: P388/ADR leukemia
# MALME-3M melanoma = tested on: MALME-3M melanoma
# DMS 114 small cell lung = tested on: DMS 114 small cell lung
# SF-268 CNS = tested on: SF-268 CNS
# RXF 393 renal = tested on: RXF 393 renal
# SNB-19 CNS = tested on: SNB-19 CNS
# PC-3 prostate = tested on: PC-3 prostate
# UACC-62 melanoma = tested on: UACC-62 melanoma
# P388 leukemia = tested on: P388 leukemia
# HS 578T breast = tested on: HS 578T breast
# A498 renal = tested on: A498 renal
# SK-MEL-2 melanoma = tested on: SK-MEL-2 melanoma
# OVCAR-8 ovarian = tested on: OVCAR-8 ovarian
# SNB-78 CNS = tested on: SNB-78 CNS
# NCI-H522 lung = tested on: NCI-H522 lung
# HT29 colon = tested on: HT29 colon
# BT-549 breast = tested on: BT-549 breast
# RPMI-8226 leukemia = tested on: RPMI-8226 leukemia
# COLO 205 colon = tested on: COLO 205 colon
# LXFL 529 NSCLC = tested on: LXFL 529 NSCLC
# EKVX NSCLC = tested on: EKVX NSCLC
# NCI-H23 lung = tested on: NCI-H23 lung
# SNB-75 CNS = tested on: SNB-75 CNS
# HCT-15 colon = tested on: HCT-15 colon
# LOX IMVI melanoma = tested on: LOX IMVI melanoma
# SN12C renal = tested on: SN12C renal
# OVCAR-3 ovarian = tested on: OVCAR-3 ovarian
# T-47D breast = tested on: T-47D breast
# KM12 colon = tested on: KM12 colon
smiles,measurement,setting,value
CC(C)NC(=O)OCc1c(COC(=O)NC(C)C)c(-c2ccc(Cl)c(Cl)c2)n2c1CCC2,TGI,DMS 273 small cell lung,> 67 µM
same,TGI,MDA-MB-435,> 100 µM
same,TGI,U251 CNS,71.8 µM
same,TGI,SF-295 CNS,72.8 µM
same,TGI,IGROV1 ovarian,70.6 µM
same,TGI,MCF7 breast,> 100 µM
same,TGI,M19-MEL melanoma,61.3 µM
same,TGI,MOLT-4 leukemia,34.8 µM
same,TGI,CCRF-CEM leukemia,44.6 µM
same,TGI,NCI-H226 lung,47.4 µM
same,TGI,SK-MEL-5 melanoma,> 81.7 µM
same,TGI,SF-539 CNS,65.4 µM
same,TGI,XF 498 CNS,> 62.1 µM
same,TGI,HOP-62 NSCLC,62 µM
same,TGI,UO-31 renal,63.5 µM
same,TGI,786-0 renal,44.5 µM
same,TGI,HL-60(TB) leukemia,48.2 µM
same,TGI,SR leukemia,36.3 µM
same,TGI,NCI/ADR-RES ovarian,> 100 µM
same,TGI,HCT-116 colon,73 µM
same,TGI,M14 melanoma,55.5 µM
same,TGI,OVCAR-4 ovarian,> 78.8 µM
same,TGI,UACC-257 melanoma,65.9 µM
same,TGI,NCI-H460 lung,68.3 µM
same,TGI,MDA-MB-231 breast,> 100 µM
same,TGI,A549 NSCLC,29.6 µM
same,TGI,DLD-1 colon,> 72.3 µM
same,TGI,SW-620 colon,71.7 µM
same,TGI,K-562 leukemia,77.1 µM
same,TGI,DU-145 prostate,> 100 µM
same,TGI,SN12K1 renal,> 100 µM
same,TGI,HOP-18 NSCLC,> 83.9 µM
same,TGI,OVCAR-5 ovarian,64.1 µM
same,TGI,HCC-2998 colon,61.2 µM
same,TGI,KM20L2 colon,58.7 µM
same,TGI,TK-10 renal,88.2 µM
same,TGI,CAKI-1 renal,42.2 µM
same,TGI,SK-MEL-28 melanoma,75.1 µM
same,TGI,ACHN renal,43.6 µM
same,TGI,HOP-92 NSCLC,52.2 µM
same,TGI,SK-OV-3 ovarian,> 76.8 µM
same,TGI,P388/ADR leukemia,> 100 µM
same,TGI,MALME-3M melanoma,70.8 µM
same,TGI,DMS 114 small cell lung,57.4 µM
same,TGI,SF-268 CNS,67.6 µM
same,TGI,RXF 393 renal,46.9 µM
same,TGI,SNB-19 CNS,81 µM
same,TGI,PC-3 prostate,> 100 µM
same,TGI,UACC-62 melanoma,53.9 µM
same,TGI,P388 leukemia,> 100 µM
same,TGI,HS 578T breast,> 100 µM
same,TGI,A498 renal,43.3 µM
same,TGI,SK-MEL-2 melanoma,> 65.1 µM
same,TGI,OVCAR-8 ovarian,73.4 µM
same,TGI,SNB-78 CNS,41.9 µM
same,TGI,NCI-H522 lung,> 74.4 µM
same,TGI,HT29 colon,64.1 µM
same,TGI,BT-549 breast,> 100 µM
same,TGI,RPMI-8226 leukemia,73.3 µM
same,TGI,COLO 205 colon,71.3 µM
same,TGI,LXFL 529 NSCLC,16.3 µM
same,TGI,EKVX NSCLC,69.6 µM
same,TGI,NCI-H23 lung,60.9 µM
same,TGI,SNB-75 CNS,61.7 µM
same,TGI,HCT-15 colon,71.3 µM
same,TGI,LOX IMVI melanoma,66.6 µM
same,TGI,SN12C renal,68.2 µM
same,TGI,OVCAR-3 ovarian,69.9 µM
same,TGI,T-47D breast,> 56.2 µM
same,TGI,KM12 colon,73.1 µM
